Source: patent US11840686B2, “Modulation of prekallikrein (PKK) expression” (Ionis Pharmaceuticals, Inc., priority 2013, dated 2023)
Strand notation (5' to 3'): a small letter for the sugar, then the base; units joined by * are phosphorothioate-linked, units joined directly phosphodiester-linked; [ ] holds rarer units or linkages, { } end groups; capitals alone tell only the bases. e = 2'-O-(2-methoxyethyl) (MOE); [5mC] = 5-methylcytosine; d = 2'-deoxy (DNA)

Test system: human PKK mRNA
Test: Antisense inhibition of human PKK mRNA in HepaRG cells, 5,000 nM (Example 2)
Type: cell-based
Conditions: approx. 24 hours
Method in brief: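 qRT-PCR (RTS3454) read-out, RIBOGREEN-normalized; % inhibition vs untreated cells. HepaRG, 20,000 cells/well, electroporation, 5,000 nM ASO, ~24 h.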

[1] = Table 9 experiment, HepaRG cells, 20,000 cells per well, electroporation with 5,000 nM antisense oligonucleotide, PKK mRNA by RT-PCR (RTS3454), relative to untreated control cells
[2] = Table 10 experiment, HepaRG cells, 20,000 cells per well, electroporation with 5,000 nM antisense oligonucleotide, PKK mRNA by RT-PCR (RTS3454), relative to untreated control cells
[3] = HepaRG cells, electroporation, 5,000 nM antisense oligonucleotide, primer probe set RTS3454, relative to untreated control cells, Table 11

Row | Substance | % inhibition [1] | % inhibition [2] | % inhibition [3]
1 | 546320 (antisense eG*eG*eT*eA*eG*dG*d[5mC]*dA*dT*dA*dT*dT*dG*dG*dT*eT*eT*eT*eT*eG) [compound 546320] | 72% | 69% | 
2 | 546321 (antisense eG*eA*eA*eG*eG*dT*dA*dG*dG*d[5mC]*dA*dT*dA*dT*dT*eG*eG*eT*eT*eT) [compound 546321] | 53% | 56% | 
3 | 546322 (antisense e[5mC]*eT*eT*eG*eT*dG*dT*d[5mC]*dA*d[5mC]*d[5mC]*dT*dT*dT*dG*eG*eA*eA*eG*eG) [compound 546322] | 74% | 68% | 
4 | 546323 (antisense eG*eT*eG*e[5mC]*eT*dT*dG*dT*dG*dT*d[5mC]*dA*d[5mC]*d[5mC]*dT*eT*eT*eG*eG*eA) [compound 546323] | 94% | 80% | 
5 | 546324 (antisense eG*eG*eT*eA*eT*dA*dA*dA*dT*dT*dG*dT*dG*d[5mC]*dT*eT*eG*eT*eG*eT) [compound 546324] | 73% | 82% | 
6 | 546325 (antisense e[5mC]*eA*eG*eT*eT*dG*dG*dT*dA*dT*dA*dA*dA*dT*dT*eG*eT*eG*e[5mC]*eT) [compound 546325] | 74% | 79% | 
7 | 546326 (antisense e[5mC]*e[5mC]*e[5mC]*eA*eA*d[5mC]*dA*dG*dT*dT*dG*dG*dT*dA*dT*eA*eA*eA*eT*eT) [compound 546326] | 62% | 64% | 
8 | 546327 (antisense eG*eG*eT*eT*eA*d[5mC]*d[5mC]*d[5mC]*dA*dA*d[5mC]*dA*dG*dT*dT*eG*eG*eT*eA*eT) [compound 546327] | 95% | 84% | 
9 | 546328 (antisense eG*eA*eA*eG*e[5mC]*d[5mC]*d[5mC]*d[5mC]*dA*dT*d[5mC]*d[5mC]*dG*dG*dT*eT*eA*e[5mC]*e[5mC]*e[5mC]) [compound 546328] | 84% | 81% | 
10 | 546329 (antisense e[5mC]*e[5mC]*eT*eT*e[5mC]*dG*dA*dG*dA*dA*dG*d[5mC]*d[5mC]*d[5mC]*d[5mC]*eA*eT*e[5mC]*e[5mC]*eG) [compound 546329] | 18% | 8% | 
11 | 546330 (antisense eT*eT*eT*e[5mC]*eT*d[5mC]*d[5mC]*dT*dT*d[5mC]*dG*dA*dG*dA*dA*eG*e[5mC]*e[5mC]*e[5mC]*e[5mC]) [compound 546330] | 55% | 67% | 
12 | 546331 (antisense eT*eT*e[5mC]*eA*e[5mC]*d[5mC]*dT*dT*dT*d[5mC]*dT*d[5mC]*d[5mC]*dT*dT*e[5mC]*eG*eA*eG*eA) [compound 546331] | 59% | 44% | 
13 | 546336 (antisense eT*e[5mC]*eA*eT*eT*dT*dG*dT*dT*dA*d[5mC]*d[5mC]*dA*dA*dA*eG*eG*eA*eA*eT) [compound 546336] | 66% | 73% | 
14 | 546339 (antisense e[5mC]*eT*eT*eG*eA*dT*dA*dT*d[5mC]*dT*dT*dT*dT*d[5mC]*dT*eG*eG*e[5mC]*eA*eT) [compound 546339] | 65% | 64% | 
15 | 546340 (antisense eT*eA*eA*eT*e[5mC]*dT*dT*dG*dA*dT*dA*dT*d[5mC]*dT*dT*eT*eT*e[5mC]*eT*eG) [compound 546340] | 30% | 56% | 
16 | 546345 (antisense e[5mC]*eA*eA*eG*e[5mC]*dA*dT*d[5mC]*dT*dT*dT*dT*d[5mC]*d[5mC]*d[5mC]*e[5mC]*e[5mC]*eT*eT*e[5mC]) [compound 546345] | 86% | 80% | 
17 | 546346 (antisense eA*eG*eG*eG*eA*d[5mC]*d[5mC]*dA*d[5mC]*d[5mC]*dT*dG*dA*dA*dT*e[5mC]*eT*e[5mC]*e[5mC]*e[5mC]) [compound 546346] | 83% | 70% | 
18 | 546347 (antisense eA*e[5mC]*eT*eA*eA*dG*dG*dG*dA*d[5mC]*d[5mC]*dA*d[5mC]*d[5mC]*dT*eG*eA*eA*eT*e[5mC]) [compound 546347] | 28% | 22% | 
19 | 546348 (antisense eG*e[5mC]*eA*eA*eA*d[5mC]*dT*dA*dA*dG*dG*dG*dA*d[5mC]*d[5mC]*eA*e[5mC]*e[5mC]*eT*eG) [compound 546348] | 79% | 76% | 
20 | 546349 (antisense eG*eT*eG*eT*eT*dT*dG*d[5mC]*dA*dA*dA*d[5mC]*dT*dA*dA*eG*eG*eG*eA*e[5mC]) [compound 546349] | 48% | 35% | 
21 | 546350 (antisense e[5mC]*e[5mC]*e[5mC]*eT*eG*d[5mC]*dG*dG*dG*d[5mC]*dA*d[5mC]*dA*dG*d[5mC]*e[5mC]*eT*eT*e[5mC]*eA) [compound 546350] | 88% | 74% | 
22 | 546351 (antisense eT*eT*eG*e[5mC]*eT*d[5mC]*d[5mC]*d[5mC]*dT*dG*d[5mC]*dG*dG*dG*d[5mC]*eA*e[5mC]*eA*eG*e[5mC]) [compound 546351] | 82% | 60% | 

Row | Substance | % inhibition [1] | % inhibition [2] | % inhibition [3]
23 | 546352 (antisense e[5mC]*eA*e[5mC]*e[5mC]*eA*dG*dG*dT*dT*dG*d[5mC]*dT*d[5mC]*d[5mC]*d[5mC]*eT*eG*e[5mC]*eG*eG) [compound 546352] | 75% | 74% | 
24 | 546353 (antisense e[5mC]*eT*e[5mC]*eA*eG*d[5mC]*dG*dA*d[5mC]*dT*dT*dT*dG*dG*dT*eG*eT*eA*eG*eA) [compound 546353] |  |  | 55%
25 | 546354 (antisense eG*eT*eA*e[5mC]*eT*d[5mC]*dA*dG*d[5mC]*dG*dA*d[5mC]*dT*dT*dT*eG*eG*eT*eG*eT) [compound 546354] |  |  | 47%
26 | 546356 (antisense eT*e[5mC]*e[5mC]*eA*eG*dT*d[5mC]*d[5mC]*dA*dT*dG*dT*dA*d[5mC]*dT*e[5mC]*eA*eG*e[5mC]*eG) [compound 546356] |  |  | 60%
27 | 546357 (antisense eG*e[5mC]*eT*eT*eT*dT*d[5mC]*d[5mC]*dA*dT*d[5mC]*dA*d[5mC]*dT*dG*e[5mC]*eT*e[5mC]*eT*eG) [compound 546357] |  |  | 79%
28 | 546359 (antisense eG*e[5mC]*eA*eT*e[5mC]*dT*dG*dA*dG*d[5mC]*dT*dT*dT*dT*d[5mC]*e[5mC]*eA*eT*e[5mC]*eA) [compound 546359] |  |  | 79%
29 | 546360 (antisense eA*e[5mC]*eT*eG*e[5mC]*dA*dT*d[5mC]*dT*dG*dA*dG*d[5mC]*dT*dT*eT*eT*e[5mC]*e[5mC]*eA) [compound 546360] |  |  | 13%
30 | 546362 (antisense eT*e[5mC]*eA*eT*eG*d[5mC]*dT*dG*dG*dT*dG*dA*d[5mC]*dT*dG*e[5mC]*eA*eT*e[5mC]*eT) [compound 546362] |  |  | 71%
31 | 546363 (antisense e[5mC]*eT*eT*e[5mC]*eT*d[5mC]*dA*dT*dG*d[5mC]*dT*dG*dG*dT*dG*eA*e[5mC]*eT*eG*e[5mC]) [compound 546363] |  |  | 81%
32 | 546364 (antisense eG*eG*eA*e[5mC]*eT*dG*d[5mC]*dT*dT*d[5mC]*dT*d[5mC]*dA*dT*dG*e[5mC]*eT*eG*eG*eT) [compound 546364] |  |  | 61%
33 | 546365 (antisense eA*eG*eA*e[5mC]*eT*d[5mC]*dT*dG*dG*dA*d[5mC]*dT*dG*d[5mC]*dT*eT*e[5mC]*eT*e[5mC]*eA) [compound 546365] |  |  | 64%
34 | 546366 (antisense eT*eG*e[5mC]*e[5mC]*eT*dA*dG*dA*d[5mC]*dT*d[5mC]*dT*dG*dG*dA*e[5mC]*eT*eG*e[5mC]*eT) [compound 546366] |  |  | 79%
35 | 546367 (antisense eA*eA*eA*eA*eA*dT*dT*dG*d[5mC]*d[5mC]*dT*dA*dG*dA*d[5mC]*eT*e[5mC]*eT*eG*eG) [compound 546367] |  |  | 61%
36 | 546368 (antisense eG*eG*eT*eT*eG*dT*dA*dA*dA*dA*dA*dT*dT*dG*d[5mC]*e[5mC]*eT*eA*eG*eA) [compound 546368] |  |  | 44%
37 | 546369 (antisense e[5mC]*eT*e[5mC]*eA*eG*dG*dT*dT*dG*dT*dA*dA*dA*dA*dA*eT*eT*eG*e[5mC]*e[5mC]) [compound 546369] |  |  | 51%
38 | 546370 (antisense eA*e[5mC]*eT*eT*eG*dA*dA*d[5mC]*dT*d[5mC]*dA*dG*dG*dT*dT*eG*eT*eA*eA*eA) [compound 546370] |  |  | 34%
39 | 546372 (antisense eG*eA*eA*eT*eT*dT*dG*dA*d[5mC]*dT*dT*dG*dA*dA*d[5mC]*eT*e[5mC]*eA*eG*eG) [compound 546372] |  |  | 49%
40 | 546373 (antisense e[5mC]*eT*e[5mC]*eA*eG*dA*dA*dT*dT*dT*dG*dA*d[5mC]*dT*dT*eG*eA*eA*e[5mC]*eT) [compound 546373] |  |  | 59%
41 | 546374 (antisense e[5mC]*e[5mC]*eA*eG*eG*d[5mC]*dT*d[5mC]*dA*dG*dA*dA*dT*dT*dT*eG*eA*e[5mC]*eT*eT) [compound 546374] |  |  | 50%
42 | 546375 (antisense eG*eA*e[5mC]*e[5mC]*e[5mC]*d[5mC]*d[5mC]*d[5mC]*dA*dG*dG*d[5mC]*dT*d[5mC]*dA*eG*eA*eA*eT*eT) [compound 546375] |  |  | 48%
43 | 546378 (antisense eT*eT*eT*eG*e[5mC]*dA*dG*dA*dT*dG*dA*dG*dG*dA*d[5mC]*e[5mC]*e[5mC]*e[5mC]*e[5mC]*e[5mC]) [compound 546378] |  |  | 79%
